Molecular target: Serine/threonine-protein kinase PAK 2 (Homo sapiens) (UniProt Q13177)
Assay: PubChem AID 1224911
Conditions: Caliper in vitro kinase assay, phosphorylated PAK2

Sequence of Serine/threonine-protein kinase PAK 2 (Homo sapiens) (Q13177 whole entry, looked up): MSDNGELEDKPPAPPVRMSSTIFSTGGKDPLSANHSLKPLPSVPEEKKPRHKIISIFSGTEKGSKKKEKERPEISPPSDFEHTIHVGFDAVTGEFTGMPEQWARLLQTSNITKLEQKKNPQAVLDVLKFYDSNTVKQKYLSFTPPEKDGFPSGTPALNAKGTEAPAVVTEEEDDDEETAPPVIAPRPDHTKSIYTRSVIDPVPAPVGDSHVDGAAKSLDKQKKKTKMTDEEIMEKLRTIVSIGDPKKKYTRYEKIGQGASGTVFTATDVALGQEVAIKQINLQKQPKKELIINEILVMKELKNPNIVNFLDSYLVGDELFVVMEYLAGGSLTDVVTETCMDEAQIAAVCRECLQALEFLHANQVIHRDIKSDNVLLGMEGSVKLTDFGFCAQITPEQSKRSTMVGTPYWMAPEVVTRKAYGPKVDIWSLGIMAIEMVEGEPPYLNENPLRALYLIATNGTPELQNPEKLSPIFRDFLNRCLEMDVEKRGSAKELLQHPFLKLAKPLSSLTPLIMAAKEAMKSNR

`CC(C)NC(=O)N1CC[C@H](N=C2Nc3cc(F)ccc3N(CC(F)F)c3ccc(Cl)cc32)C1` showed an IC50 of 720 nM.

From PubChem BioAssay AID1224911
